Laboratory results as given in ChEMBL document CHEMBL1201862, “PubChem BioAssay data set” (2004).
Active and inactive are the calls of the source.

Experiments:
[1] = target: T1, DNA dC->dU-editing enzyme APOBEC-3G (Homo sapiens, UniProt Q9HC16); experiment: Dose Response confirmation of small molecule APOBEC3G DNA Deaminase Inhibitors via a fluorescence-based single-stranded DNA deaminase assay. [Related pubchem assays (depositor defined):AID493012, AID493028]; format: functional
[2] = target: Glucose-6-phosphate 1-dehydrogenase (Homo sapiens, UniProt P11413); experiment: human G6PD enzyme inhibitors, dose response, selectivity assay for P. falciparum G6PD inhibitor project, biochemical, fluorescence (AID 504792); format: functional
Glucose-6-phosphate 1-dehydrogenase, sequence (P11413 whole entry): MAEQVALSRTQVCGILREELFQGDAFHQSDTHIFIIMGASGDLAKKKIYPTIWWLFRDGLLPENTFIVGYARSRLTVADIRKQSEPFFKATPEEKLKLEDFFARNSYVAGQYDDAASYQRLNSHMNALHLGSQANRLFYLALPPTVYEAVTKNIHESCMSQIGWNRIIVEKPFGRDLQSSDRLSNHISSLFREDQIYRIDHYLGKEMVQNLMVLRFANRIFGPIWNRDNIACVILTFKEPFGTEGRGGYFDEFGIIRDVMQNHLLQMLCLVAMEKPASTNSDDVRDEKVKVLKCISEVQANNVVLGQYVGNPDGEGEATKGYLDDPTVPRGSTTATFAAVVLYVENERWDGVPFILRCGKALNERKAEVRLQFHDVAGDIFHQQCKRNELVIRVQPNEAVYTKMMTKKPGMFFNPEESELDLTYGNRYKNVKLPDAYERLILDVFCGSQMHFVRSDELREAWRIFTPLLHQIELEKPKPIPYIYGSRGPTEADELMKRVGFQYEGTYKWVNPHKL

[3] = target: T2, Heat shock factor protein 1 (Mus musculus, UniProt P38532); experiment: HSF1 potentiators in luciferase reporter cells, confirmation, cell-based, NIH3T3, luminescence, dose retest (AID 435004); format: functional;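 also: stress induced by proteasome inhibitor MG132 added 30 min after compound; luciferase reporter driven by HSF1 response element in NIH3T3 cells; actives raise luminescence as potentiators of the MG132 stress response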
T2 sequence (P38532 whole entry): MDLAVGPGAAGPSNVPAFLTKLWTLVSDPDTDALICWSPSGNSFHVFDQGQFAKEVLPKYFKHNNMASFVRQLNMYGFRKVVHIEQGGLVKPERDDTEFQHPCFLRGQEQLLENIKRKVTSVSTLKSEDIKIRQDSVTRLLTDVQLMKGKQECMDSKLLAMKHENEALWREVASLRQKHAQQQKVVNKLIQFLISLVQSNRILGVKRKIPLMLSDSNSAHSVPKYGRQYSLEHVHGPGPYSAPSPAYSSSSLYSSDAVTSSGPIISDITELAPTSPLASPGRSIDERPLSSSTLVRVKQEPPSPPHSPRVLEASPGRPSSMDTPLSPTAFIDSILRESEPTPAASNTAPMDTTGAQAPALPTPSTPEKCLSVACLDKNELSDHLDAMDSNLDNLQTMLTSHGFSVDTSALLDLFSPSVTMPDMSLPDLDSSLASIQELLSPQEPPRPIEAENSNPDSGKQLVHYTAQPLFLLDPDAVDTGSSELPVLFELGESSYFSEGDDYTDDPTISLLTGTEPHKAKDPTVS

[4] = target: Induced myeloid leukemia cell differentiation protein Mcl-1 (Homo sapiens, UniProt Q07820); format: functional
[5] = target: T3, DNA dC->dU-editing enzyme APOBEC-3A (Homo sapiens, UniProt P31941); experiment: APOBEC3A DNA deaminase inhibitors, dose response, biochemical (AID 504722); format: functional
T3 sequence (P31941 whole entry): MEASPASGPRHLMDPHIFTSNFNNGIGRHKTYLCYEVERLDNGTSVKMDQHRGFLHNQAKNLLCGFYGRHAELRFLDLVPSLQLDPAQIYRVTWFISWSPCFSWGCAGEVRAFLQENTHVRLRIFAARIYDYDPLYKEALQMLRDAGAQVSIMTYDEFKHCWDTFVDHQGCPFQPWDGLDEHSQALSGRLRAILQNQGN

[6] = target: T4, Voltage-gated N-type calcium channel alpha-1B subunit/Amyloid beta A4 precursor protein-binding family A member 1 (Homo sapiens, UniProt Q00975+Q02410); format: protein assay
T4 sequence (Q00975 whole entry): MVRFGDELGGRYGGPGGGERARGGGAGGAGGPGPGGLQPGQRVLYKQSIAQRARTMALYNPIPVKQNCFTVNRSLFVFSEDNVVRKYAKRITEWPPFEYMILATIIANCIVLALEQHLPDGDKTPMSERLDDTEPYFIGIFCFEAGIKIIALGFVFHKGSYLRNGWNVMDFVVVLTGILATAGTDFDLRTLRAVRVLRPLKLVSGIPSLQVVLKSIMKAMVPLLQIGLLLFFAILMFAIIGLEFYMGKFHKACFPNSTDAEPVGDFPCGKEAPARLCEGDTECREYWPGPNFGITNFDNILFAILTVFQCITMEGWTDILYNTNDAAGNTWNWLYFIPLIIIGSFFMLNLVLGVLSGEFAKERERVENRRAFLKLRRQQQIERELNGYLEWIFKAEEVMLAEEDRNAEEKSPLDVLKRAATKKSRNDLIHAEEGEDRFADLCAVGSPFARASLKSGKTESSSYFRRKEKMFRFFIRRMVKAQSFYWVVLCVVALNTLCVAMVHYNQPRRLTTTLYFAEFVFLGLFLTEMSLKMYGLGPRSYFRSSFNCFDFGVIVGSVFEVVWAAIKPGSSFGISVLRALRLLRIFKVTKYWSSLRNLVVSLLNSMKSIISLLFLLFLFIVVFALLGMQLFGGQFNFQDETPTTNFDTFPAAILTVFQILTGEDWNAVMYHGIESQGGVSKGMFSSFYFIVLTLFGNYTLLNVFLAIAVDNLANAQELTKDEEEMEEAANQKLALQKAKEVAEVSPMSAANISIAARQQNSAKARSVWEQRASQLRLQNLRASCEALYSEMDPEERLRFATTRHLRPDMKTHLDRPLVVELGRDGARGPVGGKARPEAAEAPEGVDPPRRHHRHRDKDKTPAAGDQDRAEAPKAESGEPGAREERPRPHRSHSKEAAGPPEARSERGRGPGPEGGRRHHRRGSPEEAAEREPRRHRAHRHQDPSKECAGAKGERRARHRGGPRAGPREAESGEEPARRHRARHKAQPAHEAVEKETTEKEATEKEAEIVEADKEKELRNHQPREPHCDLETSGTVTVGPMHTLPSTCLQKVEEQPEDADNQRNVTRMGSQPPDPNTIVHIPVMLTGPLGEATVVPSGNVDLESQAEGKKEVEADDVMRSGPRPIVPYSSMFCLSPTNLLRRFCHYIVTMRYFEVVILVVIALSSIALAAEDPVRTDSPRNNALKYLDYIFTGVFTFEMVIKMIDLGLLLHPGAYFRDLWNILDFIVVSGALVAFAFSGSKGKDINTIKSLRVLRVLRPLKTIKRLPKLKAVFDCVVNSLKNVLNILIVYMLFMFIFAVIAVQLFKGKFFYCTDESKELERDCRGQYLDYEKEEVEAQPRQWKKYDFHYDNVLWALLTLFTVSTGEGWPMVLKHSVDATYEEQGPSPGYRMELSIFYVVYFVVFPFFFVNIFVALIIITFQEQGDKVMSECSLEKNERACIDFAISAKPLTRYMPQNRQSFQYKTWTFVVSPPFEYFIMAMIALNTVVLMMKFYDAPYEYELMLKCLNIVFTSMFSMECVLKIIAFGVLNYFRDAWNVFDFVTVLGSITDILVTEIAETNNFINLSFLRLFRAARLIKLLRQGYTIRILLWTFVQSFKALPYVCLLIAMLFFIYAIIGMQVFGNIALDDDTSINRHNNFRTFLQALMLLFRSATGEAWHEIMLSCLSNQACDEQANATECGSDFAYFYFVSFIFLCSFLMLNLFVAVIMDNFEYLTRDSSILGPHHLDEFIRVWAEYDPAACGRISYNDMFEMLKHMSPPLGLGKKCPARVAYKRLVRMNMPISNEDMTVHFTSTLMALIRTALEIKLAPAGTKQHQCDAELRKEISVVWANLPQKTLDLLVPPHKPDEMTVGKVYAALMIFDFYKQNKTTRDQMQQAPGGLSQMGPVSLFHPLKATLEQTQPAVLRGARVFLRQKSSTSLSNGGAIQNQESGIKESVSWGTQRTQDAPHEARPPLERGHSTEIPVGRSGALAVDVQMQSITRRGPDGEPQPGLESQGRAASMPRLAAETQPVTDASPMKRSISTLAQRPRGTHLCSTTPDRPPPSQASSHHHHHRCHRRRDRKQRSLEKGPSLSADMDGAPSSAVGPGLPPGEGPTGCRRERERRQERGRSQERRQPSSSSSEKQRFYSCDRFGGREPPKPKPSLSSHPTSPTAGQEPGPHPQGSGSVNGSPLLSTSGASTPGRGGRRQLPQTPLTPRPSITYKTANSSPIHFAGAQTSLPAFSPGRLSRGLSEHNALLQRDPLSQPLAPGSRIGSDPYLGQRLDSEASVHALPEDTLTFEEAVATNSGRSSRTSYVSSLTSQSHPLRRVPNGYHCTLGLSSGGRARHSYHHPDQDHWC
T4 sequence (Q02410 whole entry): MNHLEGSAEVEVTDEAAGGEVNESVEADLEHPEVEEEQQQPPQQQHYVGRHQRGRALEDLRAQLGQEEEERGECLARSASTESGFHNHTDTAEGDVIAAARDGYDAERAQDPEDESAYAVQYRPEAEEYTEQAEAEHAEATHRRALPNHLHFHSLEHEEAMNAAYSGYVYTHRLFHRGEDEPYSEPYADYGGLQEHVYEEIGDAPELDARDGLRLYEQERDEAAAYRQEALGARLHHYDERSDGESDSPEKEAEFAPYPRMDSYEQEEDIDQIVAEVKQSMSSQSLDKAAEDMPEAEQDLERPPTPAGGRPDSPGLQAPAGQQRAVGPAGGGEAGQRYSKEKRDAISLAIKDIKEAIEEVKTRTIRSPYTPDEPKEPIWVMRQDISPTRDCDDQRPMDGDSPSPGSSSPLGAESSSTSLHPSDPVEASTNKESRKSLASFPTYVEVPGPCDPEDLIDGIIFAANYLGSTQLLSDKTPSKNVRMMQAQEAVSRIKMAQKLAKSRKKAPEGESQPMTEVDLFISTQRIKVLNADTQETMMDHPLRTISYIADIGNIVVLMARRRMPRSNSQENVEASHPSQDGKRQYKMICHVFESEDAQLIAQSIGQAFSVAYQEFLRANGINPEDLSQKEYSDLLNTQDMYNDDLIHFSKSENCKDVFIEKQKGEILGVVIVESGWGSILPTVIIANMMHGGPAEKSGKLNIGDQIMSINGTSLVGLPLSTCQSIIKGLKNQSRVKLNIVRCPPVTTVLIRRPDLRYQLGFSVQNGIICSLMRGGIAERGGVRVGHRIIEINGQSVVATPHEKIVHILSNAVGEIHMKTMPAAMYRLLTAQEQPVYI

[7] = target: T4, Voltage-gated N-type calcium channel alpha-1B subunit/Amyloid beta A4 precursor protein-binding family A member 1; format: protein assay; remark: listed apart in the source
Large T antigen = Large T antigen (Simian virus 40, UniProt P03070); format: functional, Betapolyomavirus macacae;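 also: Confirmatory-stage PubChem screen for compounds that inhibit SV40 T antigen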
[8] = THP-1 cell cytotoxicity, dose response, cytotoxicity control for non-replicating M. tuberculosis project (AID 489025); format: functional
[9] = target: T5, Intestinal-type alkaline phosphatase (Homo sapiens, UniProt P09923); experiment: human intestinal alkaline phosphatase activators, dose response, biochemical, luminescence, uHTS hits (AID 463120); format: functional
T5 sequence (P09923 whole entry): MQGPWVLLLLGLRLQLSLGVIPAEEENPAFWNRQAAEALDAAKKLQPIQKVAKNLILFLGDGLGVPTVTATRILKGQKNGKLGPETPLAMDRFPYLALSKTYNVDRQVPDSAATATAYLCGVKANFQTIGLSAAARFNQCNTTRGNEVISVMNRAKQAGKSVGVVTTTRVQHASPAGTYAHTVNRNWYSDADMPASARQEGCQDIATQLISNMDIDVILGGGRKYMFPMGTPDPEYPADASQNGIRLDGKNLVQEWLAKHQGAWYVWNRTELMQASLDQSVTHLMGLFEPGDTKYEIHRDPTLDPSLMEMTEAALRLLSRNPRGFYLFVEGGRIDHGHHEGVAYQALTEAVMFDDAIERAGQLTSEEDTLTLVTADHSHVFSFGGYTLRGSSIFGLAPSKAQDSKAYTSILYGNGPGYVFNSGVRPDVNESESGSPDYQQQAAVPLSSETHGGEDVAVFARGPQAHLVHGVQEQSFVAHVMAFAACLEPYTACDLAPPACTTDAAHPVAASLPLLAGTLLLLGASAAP

[10] = system: Streptococcus sp. 'group A'; experiment: growth inhibition of control SK(-) GAS strain, dose response, counter-screen for streptokinase expression inhibitor project, luminescence, kanamycin, BacTiterGlo, confirmation (AID 1900); format: functional, organism-based
[11] = target: T5, Intestinal-type alkaline phosphatase; experiment: human IAP activators, dose response, biochemical, luminescent, uHTS hits, set 2 (AID 488817); format: functional;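 also: potency of activators that raise enzyme activity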
[12] = target: T6, Alkaline phosphatase, tissue-nonspecific isozyme (Homo sapiens, UniProt P05186); experiment: TNAP enzyme activators, dose response, selectivity assay for human IAP activator project, biochemical, TNAP isozyme, human IAP uHTS hits (AID 488886); format: functional;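 also: potency of compounds raising TNAP activity as a selectivity check on IAP activators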
T6 sequence (P05186 whole entry): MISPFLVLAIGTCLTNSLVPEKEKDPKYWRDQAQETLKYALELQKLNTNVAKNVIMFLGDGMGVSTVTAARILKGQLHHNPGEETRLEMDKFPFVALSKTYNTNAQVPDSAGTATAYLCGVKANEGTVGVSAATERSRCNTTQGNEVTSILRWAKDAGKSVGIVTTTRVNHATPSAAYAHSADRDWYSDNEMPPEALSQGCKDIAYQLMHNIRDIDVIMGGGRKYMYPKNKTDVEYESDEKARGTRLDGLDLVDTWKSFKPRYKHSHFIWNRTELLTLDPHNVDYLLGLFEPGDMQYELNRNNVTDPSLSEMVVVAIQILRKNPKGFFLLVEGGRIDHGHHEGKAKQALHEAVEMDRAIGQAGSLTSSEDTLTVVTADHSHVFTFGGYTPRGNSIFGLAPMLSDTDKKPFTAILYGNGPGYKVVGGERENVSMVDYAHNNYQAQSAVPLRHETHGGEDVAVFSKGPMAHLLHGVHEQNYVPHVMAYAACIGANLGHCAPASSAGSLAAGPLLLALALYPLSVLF

Streptococcus = experiment: Group A Streptococcus viability loss, dose response, counter-screen for streptokinase expression inhibitor project, luminescence, BacTiterGlo (AID 1915); format: functional, organism-based;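 also: potency for reduction of bacterial viability or growth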
[13] = target: Intestinal-type alkaline phosphatase (Mus musculus, UniProt P24822); experiment: PubChem AID 488874; format: functional
Streptokinase A = target: T7, Streptokinase A (Streptococcus pyogenes serotype M1, UniProt P10520); experiment: S. pyogenes streptokinase expression inhibitors, potency, dose response, plasminogen activation absorbance, OD405 (AID 1914); format: functional, Streptococcus pyogenes M1 GAS;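 also: secreted streptokinase activity via plasminogen activation per viability signal from cell pellet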
T7 sequence (P10520 whole entry): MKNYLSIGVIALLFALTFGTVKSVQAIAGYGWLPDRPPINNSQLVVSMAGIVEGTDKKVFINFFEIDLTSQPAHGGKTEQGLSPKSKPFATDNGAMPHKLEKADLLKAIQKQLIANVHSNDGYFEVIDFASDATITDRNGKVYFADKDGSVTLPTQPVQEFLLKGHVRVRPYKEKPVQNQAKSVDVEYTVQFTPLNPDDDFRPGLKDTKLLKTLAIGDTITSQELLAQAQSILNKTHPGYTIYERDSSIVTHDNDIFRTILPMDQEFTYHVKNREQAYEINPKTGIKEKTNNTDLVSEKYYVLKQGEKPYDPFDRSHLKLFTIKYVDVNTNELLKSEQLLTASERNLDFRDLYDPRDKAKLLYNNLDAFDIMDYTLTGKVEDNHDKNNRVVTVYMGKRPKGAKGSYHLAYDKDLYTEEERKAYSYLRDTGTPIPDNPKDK

HEK293 [14] = experiment: cells; conditions: Homo sapiens
HEK293 [15] = experiment: NOD2 signaling inhibitors in MDP-stimulated cells, cell-based, uHTS, luminescence (AID 2001); format: functional; conditions: Homo sapiens
HEK293 [16] = experiment: cells; format: functional, cell-based; conditions: Homo sapiens
HEK293 [17] = experiment: cells; conditions: Homo sapiens; remark: listed apart in the source
HEK293 [18] = experiment: NOD1 signaling inhibitors, primary screen, cell-based, luminescence, uHTS (AID 1578); format: functional; conditions: Homo sapiens
HEK293 [19] = experiment: cells; format: functional, cell-based; conditions: Homo sapiens; remark: listed apart in the source
[20] = target: T3, DNA dC->dU-editing enzyme APOBEC-3A; experiment: Dose Response confirmation of small molecule APOBEC3A DNA Deaminase Inhibitors via a fluorescence-based single-stranded DNA deaminase assay. [Related pubchem assays (depositor defined):AID493011, AID493024]; format: functional
[21] = target: T1, DNA dC->dU-editing enzyme APOBEC-3G; format: functional
[22] = target: Eukaryotic translation initiation factor 4H (Homo sapiens, UniProt Q15056); experiment: human eIF4H binding inhibitors, primary screen, translation initiation inhibitor project, biochemical, uHTS, fluorescence polarization (AID 2012)
[23] = target: Polyadenylate-binding protein 1 (Homo sapiens, UniProt P11940); experiment: PABP poly(A) RNA binding inhibitors, primary screen, biochemical, fluorescence polarization, uHTS (AID 2014)
[24] = growth suppression of PTEN-null colon cells, dose response, cell-based, HCT116 PTEN knockout (AID 1047); format: functional;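 also: HCT116 colon tumor cells with PTEN knocked out; cells exposed to compound for 60 hours before readout; potency for loss of cell viability measured by luminescence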
[25] = insulin promoter down-regulators in MIN6 cells, imaging, high-content screening, mouse beta cells (AID 1628); format: functional
[26] = growth suppression of beta-catenin-knockout colon cells, dose response, cell-based, HCT116, human colon tumor (AID 1045); format: functional;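 also: HCT116 colon tumor cells with beta catenin knocked out; cells exposed to compound for 60 hours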
[27] = ZM109 Env clade C HIV-1 fusion inhibitors, dose response, HeLa effector, CEM target cells, luciferase, cherry-pick (AID 652058); format: functional, cell-based
[28] = cytotoxicity in MIN6 insulinoma cells, dose response, cytotoxicity control, cell-based, mouse insulinoma (AID 2122); format: functional;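 also: confirmatory high-throughput counterscreen run to flag cytotoxic compounds; mouse MIN-6 beta cells carrying an insulin promoter eGFP reporter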
[29] = inhibitors of clade B AD8 Env fusion, dose response, cell-based, cherry-pick (AID 652062); format: functional;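 also: luciferase signal from cell-cell fusion driven by HIV-1 clade B AD8 Env; potency is for inhibitors of fusion seen as a drop in luminescence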
[30] = microbe, parasite or virus in culture; format: functional; conditions: Mycobacterium tuberculosis
INS1 = experiment: beta cell apoptosis inhibitors, cytokine rescue, dose response, luminescence, retest (AID 449756); format: functional, cell-based; conditions: Rattus norvegicus;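 also: cell death triggered by IL-1 beta plus TNF-alpha plus IFN-gamma mixture; protective hits raise ATP signal compared with cytokine alone wells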
Cytochrome P450 3A4 = Cytochrome P450 3A4 (Homo sapiens, UniProt P08684);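 also: CYP3A4 tested as one member of a cytochrome P450 panel screen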
[31] = off-target signal loss in HeLa-CEM21 co-culture – HeLa F-luc CTL cells, cherry-picked, counter-screen for HIV-1 Env fusion inhibitor project, dose response (AID 652040); format: functional, cell-based;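 also: potency for signal decrease marking cytotoxic or nonspecific inhibition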
[32] = inhibitors of HIV Env-driven cell fusion, dose response, cherry-pick (AID 652057); format: functional, cell-based
[33] = target: T8, Rac GTPase-activating protein 1 (Homo sapiens, UniProt Q9H0H5); experiment: MgcRacGAP GTPase-activating activity inhibitors, confirmation, biochemical, ADP Hunter fluorescence, primary and confirmatory (AID 624330); format: functional
T8 sequence (Q9H0H5 whole entry): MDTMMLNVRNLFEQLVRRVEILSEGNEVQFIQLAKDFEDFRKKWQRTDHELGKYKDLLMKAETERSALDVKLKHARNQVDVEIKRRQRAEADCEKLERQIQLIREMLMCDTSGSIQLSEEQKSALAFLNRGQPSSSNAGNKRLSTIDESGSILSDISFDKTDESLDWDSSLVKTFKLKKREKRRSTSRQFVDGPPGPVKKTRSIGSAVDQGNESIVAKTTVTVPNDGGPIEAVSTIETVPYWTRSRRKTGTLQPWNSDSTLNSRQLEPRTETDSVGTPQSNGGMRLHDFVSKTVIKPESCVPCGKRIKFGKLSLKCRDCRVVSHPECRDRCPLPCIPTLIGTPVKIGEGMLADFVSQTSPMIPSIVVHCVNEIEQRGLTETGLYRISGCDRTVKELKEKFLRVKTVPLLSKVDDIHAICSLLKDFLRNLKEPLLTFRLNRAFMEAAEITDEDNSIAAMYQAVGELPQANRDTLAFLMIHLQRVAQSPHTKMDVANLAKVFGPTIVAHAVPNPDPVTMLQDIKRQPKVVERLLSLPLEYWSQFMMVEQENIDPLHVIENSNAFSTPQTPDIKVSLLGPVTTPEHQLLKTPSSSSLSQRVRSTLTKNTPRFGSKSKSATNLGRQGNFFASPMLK

T1 sequence (Q9HC16 whole entry): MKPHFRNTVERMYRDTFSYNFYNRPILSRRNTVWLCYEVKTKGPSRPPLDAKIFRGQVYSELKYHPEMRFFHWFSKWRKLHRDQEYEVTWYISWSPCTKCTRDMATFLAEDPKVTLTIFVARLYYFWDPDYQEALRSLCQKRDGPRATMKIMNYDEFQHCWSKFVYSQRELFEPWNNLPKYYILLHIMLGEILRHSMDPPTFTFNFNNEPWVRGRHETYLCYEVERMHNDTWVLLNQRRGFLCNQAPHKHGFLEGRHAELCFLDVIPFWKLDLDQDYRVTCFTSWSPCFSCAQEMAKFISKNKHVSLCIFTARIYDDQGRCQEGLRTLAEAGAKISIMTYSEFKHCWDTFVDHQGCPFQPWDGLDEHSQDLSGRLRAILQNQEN

## COc1cc(SSc2cc(OC)cc([N+](=O)[O-])c2N)c(N)c([N+](=O)[O-])c1
[1]
  IC50: 2.54 µM (active)
[2]
  IC50: 20.9 µM (inactive)
[3]
  EC50: > 260 µM (inactive)
[4]
  IC50: > 54 µM (active)
[5]
  IC50: > 100 µM (inactive)

## CCOc1ccc(NC(=O)Cn2sc3nc(C)cc(C)c3c2=O)cc1
[6]
  IC50: 13.1 µM (active)
[1]
  IC50: 2.96 µM (active)
[2]
  IC50: 24.1 µM (inactive)
[5]
  IC50: > 100 µM (inactive)
[7]
  IC50: > 50 µM (inactive)
Large T antigen
  IC50: > 100 µM (active)
[8]
  CC50: 36.1 µM (active)

## O=C(CCN1C(=O)/C(=C/c2ccccc2Cl)SC1=S)NNC(=O)c1ccccc1O
[9]
  EC50: 7.7 µM (active)
[10]
  EC50: 3.63 µM (active)
[11]
  EC50: 17.7 µM (active)
[12]
  EC50: 23.2 µM (active)
Streptococcus
  EC50: 14.6 µM (active)
[13]
  IC50: 66.5 µM (active)
Streptokinase A
  EC50: 8.36 µM (active)

## CN(C)S(=O)(=O)c1cc(NC(=O)CSc2nn(-c3ccc(Cl)cc3)c(=S)s2)ccc1Cl
HEK293 [14]
  EC50: > 59.7 µM (inactive)
HEK293 [15]
  IC50: 4.69 µM (active)
HEK293 [16]
  IC50: 11.2 µM (active)
HEK293 [17]
  EC50: > 59.7 µM (inactive)
HEK293 [18]
  EC50: 13.4 µM (active)
HEK293 [19]
  IC50: 5.23 µM (active)

## CCOC(=O)COc1ccc(Br)cc1/C=C1\SC(N)=NC1=O
[20]
  IC50: 8.37 µM (active)
[21]
  IC50: 8.41 µM (active)
[22]
  IC50: > 100 µM (inactive)
[23]
  IC50: 7.13 µM (active)

## c1ccc2c(c1)ncn2CCCCOc1ccc2c(c1)CCC2
[24]
  EC50: 24.1 µM (active)
[25]
  IC50: 2.69 µM (active)
[26]
  EC50: 22.8 µM (active)
[27]
  AC50: 28.6 µM (active)
[28]
  IC50: 2.1 µM (active)
[29]
  AC50: 9.21 µM (active)
[30]
  CC50: > 40 µM (active)
INS1
  AC50: 5.04 µM (active)

## CN(C)c1ncc2nc(-c3ccc(Cl)cc3)c(=O)n(Cc3ccc(F)cc3)c2n1
Cytochrome P450 3A4
  AC50: inconclusive

## Cc1ccc(C)c(NC(=O)c2cc[n+](C)cc2)c1
[20]
  IC50: 2.08 µM (active)
[21]
  IC50: 4.76 µM (active)

## COc1ccc(C(C)=O)cc1CC1(C)C(=O)Nc2ccc(-c3ccccc3OC)cc21 (centres undefined)
[27]
  AC50: 0.627 µM (active)
HEK293 [14]
  EC50: > 59.6 µM (inactive)
[29]
  AC50: 2.02 µM (active)
HEK293 [17]
  EC50: > 59.6 µM (inactive)
[31]
  AC50: 0.397 µM (active)
[32]
  AC50: 0.29 µM (active)

## COc1cc(/C=N/n2c(S)nnc2-c2cc(C)[nH]n2)cc(OC)c1OC
[1]
  IC50: 2.5 µM (active)
[5]
  IC50: > 100 µM (inactive)
[33]
  IC50: 82.2 µM (active)
